What all share (details): pH 8
Test [1] concerns the target T1, E3 ubiquitin-protein ligase UHRF1 (Homo sapiens, UniProt Q96T88).
T1 sequence (Q96T88 whole entry): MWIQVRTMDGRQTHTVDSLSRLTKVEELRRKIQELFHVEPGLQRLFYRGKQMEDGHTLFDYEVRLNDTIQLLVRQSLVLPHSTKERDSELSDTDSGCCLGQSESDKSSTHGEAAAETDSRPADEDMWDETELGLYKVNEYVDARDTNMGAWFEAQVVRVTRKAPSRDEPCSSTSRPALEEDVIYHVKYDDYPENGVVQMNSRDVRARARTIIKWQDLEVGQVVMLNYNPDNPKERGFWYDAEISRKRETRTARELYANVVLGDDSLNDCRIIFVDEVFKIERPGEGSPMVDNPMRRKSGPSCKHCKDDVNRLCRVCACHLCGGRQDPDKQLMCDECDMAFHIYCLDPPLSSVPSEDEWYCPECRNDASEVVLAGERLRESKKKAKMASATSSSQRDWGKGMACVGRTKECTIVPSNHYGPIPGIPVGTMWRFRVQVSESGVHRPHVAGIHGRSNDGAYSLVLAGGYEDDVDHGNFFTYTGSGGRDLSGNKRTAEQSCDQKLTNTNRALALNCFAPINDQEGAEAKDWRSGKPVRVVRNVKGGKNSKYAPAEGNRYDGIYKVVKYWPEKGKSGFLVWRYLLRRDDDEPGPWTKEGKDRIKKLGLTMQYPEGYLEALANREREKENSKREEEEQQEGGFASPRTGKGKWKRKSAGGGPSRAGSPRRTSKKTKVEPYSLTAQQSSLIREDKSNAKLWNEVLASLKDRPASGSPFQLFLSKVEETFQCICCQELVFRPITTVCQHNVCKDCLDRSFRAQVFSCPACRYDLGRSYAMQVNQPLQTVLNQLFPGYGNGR
Kind of test: AlphaScreen Assay. Here is the method:
(§1) In brief, compound plates (1 μL at 10 mM highest concentration; 3-fold, 10-point dilutions in DMSO) were diluted in 1X assay buffer (20 mM TRIS pH 8.0, 25 mM NaCl, 2 mM DTT and 0.05% Tween-20) to 1 mM using a Multimek robotic pipettor (Nanoscreen), and 1 μL was spotted into the wells of 384-well low-volume Proxiplates (PerkinElmer). To these plates was added 9 μL of protein−peptide mix in a 1X assay buffer by Multidrop (Thermo) to bring the final compound concentration to 100 μM, and this was incubated for 30 min at RT. Next, 2 μL of a 1:1 mixture of streptavidin-conjugate donor and nickel-chelate acceptor beads (45μg/mL in 1X assay buffer) were added, and the plates were allowed to incubate for an additional 30 min in the dark at RT. After incubation, the plates were read on an EnVision multilabel reader equipped with an HTS AlphaScreen laser (PerkinElmer).

In test [2] the target is T2, TP53-binding protein 1 (Homo sapiens, UniProt Q12888). The test can be described thus: AlphaScreen Assay. Here is the method: as §1
T2 sequence (Q12888 whole entry): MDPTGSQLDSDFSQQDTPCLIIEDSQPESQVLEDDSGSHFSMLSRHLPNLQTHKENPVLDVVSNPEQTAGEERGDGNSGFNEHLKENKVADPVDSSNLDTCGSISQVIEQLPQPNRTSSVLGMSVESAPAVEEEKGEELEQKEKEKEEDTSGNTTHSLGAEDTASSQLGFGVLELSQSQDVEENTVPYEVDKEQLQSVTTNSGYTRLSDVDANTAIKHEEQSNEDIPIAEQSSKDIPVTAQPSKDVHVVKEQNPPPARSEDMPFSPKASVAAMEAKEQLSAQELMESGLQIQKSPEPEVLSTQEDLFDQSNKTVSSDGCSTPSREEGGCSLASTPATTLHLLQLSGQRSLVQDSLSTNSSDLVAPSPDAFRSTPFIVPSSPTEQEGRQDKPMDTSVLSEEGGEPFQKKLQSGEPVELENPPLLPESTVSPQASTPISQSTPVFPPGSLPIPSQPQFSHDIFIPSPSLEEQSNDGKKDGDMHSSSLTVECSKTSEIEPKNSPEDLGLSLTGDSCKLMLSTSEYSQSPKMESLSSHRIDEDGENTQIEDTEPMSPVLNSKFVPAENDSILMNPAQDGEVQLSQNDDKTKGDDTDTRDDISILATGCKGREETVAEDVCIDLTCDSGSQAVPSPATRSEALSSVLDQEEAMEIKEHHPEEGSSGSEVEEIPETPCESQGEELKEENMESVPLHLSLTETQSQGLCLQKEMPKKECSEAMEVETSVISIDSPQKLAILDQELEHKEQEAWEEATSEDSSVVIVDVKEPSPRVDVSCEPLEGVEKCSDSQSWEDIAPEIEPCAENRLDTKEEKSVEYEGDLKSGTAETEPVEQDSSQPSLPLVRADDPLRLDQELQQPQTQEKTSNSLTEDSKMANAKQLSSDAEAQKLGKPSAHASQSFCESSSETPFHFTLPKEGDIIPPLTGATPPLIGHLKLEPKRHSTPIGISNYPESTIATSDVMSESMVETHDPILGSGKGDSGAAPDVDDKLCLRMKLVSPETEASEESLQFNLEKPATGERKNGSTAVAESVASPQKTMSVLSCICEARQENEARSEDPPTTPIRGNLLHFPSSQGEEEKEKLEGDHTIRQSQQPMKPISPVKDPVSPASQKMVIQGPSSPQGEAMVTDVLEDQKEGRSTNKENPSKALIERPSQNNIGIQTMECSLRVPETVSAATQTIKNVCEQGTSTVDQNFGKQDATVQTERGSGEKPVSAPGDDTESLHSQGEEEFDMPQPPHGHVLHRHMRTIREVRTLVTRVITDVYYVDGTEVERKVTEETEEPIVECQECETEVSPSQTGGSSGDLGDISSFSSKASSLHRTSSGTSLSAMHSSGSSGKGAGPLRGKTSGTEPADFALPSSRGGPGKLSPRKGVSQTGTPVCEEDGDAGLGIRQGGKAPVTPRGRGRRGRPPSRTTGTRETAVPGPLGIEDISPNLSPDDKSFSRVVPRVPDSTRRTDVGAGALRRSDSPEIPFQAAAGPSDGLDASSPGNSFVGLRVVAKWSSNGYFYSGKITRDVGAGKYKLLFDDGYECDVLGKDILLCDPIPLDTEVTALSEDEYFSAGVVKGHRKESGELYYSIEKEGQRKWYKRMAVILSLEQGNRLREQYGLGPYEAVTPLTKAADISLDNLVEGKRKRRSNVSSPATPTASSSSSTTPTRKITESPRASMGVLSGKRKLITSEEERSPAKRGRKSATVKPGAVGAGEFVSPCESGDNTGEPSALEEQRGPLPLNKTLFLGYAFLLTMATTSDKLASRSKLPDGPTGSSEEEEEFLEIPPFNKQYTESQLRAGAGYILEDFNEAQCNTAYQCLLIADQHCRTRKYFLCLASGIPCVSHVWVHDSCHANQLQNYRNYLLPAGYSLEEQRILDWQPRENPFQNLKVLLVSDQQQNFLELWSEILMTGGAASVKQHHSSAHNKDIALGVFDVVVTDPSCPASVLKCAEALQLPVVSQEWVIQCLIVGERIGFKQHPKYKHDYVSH
The target of test [3] is T3, Chromobox protein homolog 7 (Homo sapiens, UniProt O95931).
T3 sequence (O95931 whole entry): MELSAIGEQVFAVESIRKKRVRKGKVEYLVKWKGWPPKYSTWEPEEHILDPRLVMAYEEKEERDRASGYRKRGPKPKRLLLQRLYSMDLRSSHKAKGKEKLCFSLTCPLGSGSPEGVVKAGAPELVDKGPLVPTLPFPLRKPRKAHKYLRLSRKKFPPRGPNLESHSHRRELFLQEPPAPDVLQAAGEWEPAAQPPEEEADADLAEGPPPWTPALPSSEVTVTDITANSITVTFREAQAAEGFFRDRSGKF
Kind of test: AlphaScreen Assay. Here is the method: as §1

For test [4], the target named is Lysine-specific demethylase 5A (Homo sapiens, UniProt P29375). Kind of test: AlphaScreen Assay. Here is the method: as §1
Chain of Lysine-specific demethylase 5A (P29375 whole entry): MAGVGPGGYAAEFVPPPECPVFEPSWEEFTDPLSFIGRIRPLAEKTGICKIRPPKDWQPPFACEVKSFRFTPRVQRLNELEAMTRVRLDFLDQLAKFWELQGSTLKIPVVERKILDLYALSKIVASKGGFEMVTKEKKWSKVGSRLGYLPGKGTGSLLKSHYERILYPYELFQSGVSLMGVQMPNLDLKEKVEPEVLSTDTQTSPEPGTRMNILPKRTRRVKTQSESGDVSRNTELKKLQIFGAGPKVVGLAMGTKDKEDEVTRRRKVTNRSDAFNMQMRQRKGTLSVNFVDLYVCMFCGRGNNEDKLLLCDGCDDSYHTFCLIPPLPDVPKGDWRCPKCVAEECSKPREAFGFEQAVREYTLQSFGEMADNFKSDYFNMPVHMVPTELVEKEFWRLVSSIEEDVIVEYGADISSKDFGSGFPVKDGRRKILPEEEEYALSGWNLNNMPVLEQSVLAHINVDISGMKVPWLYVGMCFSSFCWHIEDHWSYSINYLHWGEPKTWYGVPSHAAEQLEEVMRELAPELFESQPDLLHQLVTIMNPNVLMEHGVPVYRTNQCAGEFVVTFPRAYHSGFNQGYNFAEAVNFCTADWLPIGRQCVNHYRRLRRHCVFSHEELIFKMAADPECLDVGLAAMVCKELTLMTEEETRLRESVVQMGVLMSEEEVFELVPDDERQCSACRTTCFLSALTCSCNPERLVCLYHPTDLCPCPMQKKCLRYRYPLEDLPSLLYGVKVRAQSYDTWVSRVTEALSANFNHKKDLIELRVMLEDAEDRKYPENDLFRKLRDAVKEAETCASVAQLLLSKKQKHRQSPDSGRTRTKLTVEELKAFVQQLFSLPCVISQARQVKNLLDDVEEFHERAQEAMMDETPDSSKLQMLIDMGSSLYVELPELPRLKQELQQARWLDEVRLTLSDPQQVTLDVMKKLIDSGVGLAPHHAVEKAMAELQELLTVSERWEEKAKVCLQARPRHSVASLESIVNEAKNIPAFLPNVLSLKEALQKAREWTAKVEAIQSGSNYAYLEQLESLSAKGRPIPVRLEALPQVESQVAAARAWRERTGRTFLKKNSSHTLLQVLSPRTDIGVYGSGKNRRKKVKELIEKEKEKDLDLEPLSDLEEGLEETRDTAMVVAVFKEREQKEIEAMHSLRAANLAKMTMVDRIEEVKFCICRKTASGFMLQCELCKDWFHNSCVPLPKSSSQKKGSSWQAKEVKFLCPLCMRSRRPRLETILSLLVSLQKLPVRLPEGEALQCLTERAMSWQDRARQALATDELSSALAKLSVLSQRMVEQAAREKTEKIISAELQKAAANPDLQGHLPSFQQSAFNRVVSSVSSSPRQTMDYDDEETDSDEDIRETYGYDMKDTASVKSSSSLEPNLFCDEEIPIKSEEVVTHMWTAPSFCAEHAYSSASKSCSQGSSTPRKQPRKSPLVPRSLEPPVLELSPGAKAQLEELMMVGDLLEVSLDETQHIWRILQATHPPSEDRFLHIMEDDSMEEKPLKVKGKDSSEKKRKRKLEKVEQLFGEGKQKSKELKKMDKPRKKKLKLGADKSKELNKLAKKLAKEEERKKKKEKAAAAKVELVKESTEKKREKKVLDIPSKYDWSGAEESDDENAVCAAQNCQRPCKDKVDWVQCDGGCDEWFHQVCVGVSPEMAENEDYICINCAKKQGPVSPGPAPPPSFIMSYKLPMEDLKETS
A further test concerns the target T4, PHD finger protein 1 (Homo sapiens, UniProt O43189).
T4 sequence (O43189 whole entry): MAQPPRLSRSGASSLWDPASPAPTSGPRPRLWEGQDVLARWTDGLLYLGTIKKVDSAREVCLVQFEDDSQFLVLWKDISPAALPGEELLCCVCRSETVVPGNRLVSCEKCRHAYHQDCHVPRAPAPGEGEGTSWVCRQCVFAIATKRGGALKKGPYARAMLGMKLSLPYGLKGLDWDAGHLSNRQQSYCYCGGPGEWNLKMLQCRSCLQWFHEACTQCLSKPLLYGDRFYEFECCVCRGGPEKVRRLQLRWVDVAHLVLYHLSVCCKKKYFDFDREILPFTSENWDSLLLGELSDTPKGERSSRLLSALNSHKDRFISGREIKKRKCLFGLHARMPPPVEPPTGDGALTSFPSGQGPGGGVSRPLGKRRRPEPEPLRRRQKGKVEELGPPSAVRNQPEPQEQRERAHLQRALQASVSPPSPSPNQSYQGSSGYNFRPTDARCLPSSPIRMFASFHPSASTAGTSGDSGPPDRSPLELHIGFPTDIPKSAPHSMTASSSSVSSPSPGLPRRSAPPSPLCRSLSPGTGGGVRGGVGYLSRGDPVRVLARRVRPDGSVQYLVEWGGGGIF
The test can be described thus: AlphaScreen Assay. As to the method:
as §1

Test [5] addresses MBT domain-containing protein 1 (Homo sapiens, UniProt Q05BQ5). The test can be described thus: AlphaScreen Assay. Here is the method: as §1
In test [6] the target is T5, Isoform 4 of Lethal(3)malignant brain tumor-like protein 1 (4) (Homo sapiens, UniProt Q9Y468).
T5 sequence (Q9Y468 whole entry): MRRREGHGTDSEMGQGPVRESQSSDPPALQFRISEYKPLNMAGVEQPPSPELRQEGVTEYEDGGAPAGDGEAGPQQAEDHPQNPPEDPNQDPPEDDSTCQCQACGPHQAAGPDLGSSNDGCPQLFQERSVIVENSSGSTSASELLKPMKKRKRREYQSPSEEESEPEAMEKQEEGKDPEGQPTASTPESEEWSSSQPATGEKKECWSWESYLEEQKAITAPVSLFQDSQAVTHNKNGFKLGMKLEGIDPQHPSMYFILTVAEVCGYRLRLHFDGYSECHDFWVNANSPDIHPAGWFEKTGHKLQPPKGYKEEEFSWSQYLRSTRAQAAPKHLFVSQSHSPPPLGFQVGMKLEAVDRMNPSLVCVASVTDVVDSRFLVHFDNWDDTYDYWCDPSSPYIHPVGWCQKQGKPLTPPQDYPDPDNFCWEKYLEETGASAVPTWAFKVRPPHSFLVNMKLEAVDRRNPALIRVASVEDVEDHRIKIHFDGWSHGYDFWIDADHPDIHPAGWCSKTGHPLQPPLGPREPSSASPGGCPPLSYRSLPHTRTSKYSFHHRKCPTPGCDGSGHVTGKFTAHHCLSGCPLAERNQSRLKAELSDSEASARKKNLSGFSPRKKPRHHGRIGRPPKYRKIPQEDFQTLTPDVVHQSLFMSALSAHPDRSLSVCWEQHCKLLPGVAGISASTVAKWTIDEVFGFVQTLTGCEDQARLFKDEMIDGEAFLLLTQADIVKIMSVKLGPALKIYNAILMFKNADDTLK
The test can be described thus: AlphaScreen Assay. Here is the method: as §1

The next test deals with PHD finger protein 23 (Homo sapiens, UniProt Q9BUL5). Kind of test: AlphaScreen Assay. Here is the method:
as §1

For a further test, the target named is PHD finger protein 19 (Homo sapiens, UniProt Q5T6S3). Kind of test: AlphaScreen Assay. As to the method: as §1
The target of test [7] is T2, TP53-binding protein 1. Kind of test: ITC. Here is the method:
All ITC measurements were recorded at 25 °C with an AutoITC200 microcalorimeter (MicroCal Inc.). All protein and compound stock samples were in the target buffer (25 mM Tris-HCl, pH 8, 150 mM NaCl, and 2 mM β-mercaptoethanol), and then diluted in the same buffer to achieve the desired concentrations: 90 200 μM protein and 1 2 mM compound depending on the expected dissociation constant. The concentration of protein stock solutions were established using the Edelhoch method, whereas 10 mM compound stock solutions were prepared gravimetrically based on molecular weight. A typical experiment included a single 0.2 μL compound injection into a 200 μL cell filled with protein, followed by 25 subsequent 1.5 μL injections of compound. Injections were performed with a spacing of 180 seconds and a reference power of 8 μcal/sec.

pIC50, pKd: −log10 of the molar value.

Chain of PHD finger protein 23 (Q9BUL5 whole entry): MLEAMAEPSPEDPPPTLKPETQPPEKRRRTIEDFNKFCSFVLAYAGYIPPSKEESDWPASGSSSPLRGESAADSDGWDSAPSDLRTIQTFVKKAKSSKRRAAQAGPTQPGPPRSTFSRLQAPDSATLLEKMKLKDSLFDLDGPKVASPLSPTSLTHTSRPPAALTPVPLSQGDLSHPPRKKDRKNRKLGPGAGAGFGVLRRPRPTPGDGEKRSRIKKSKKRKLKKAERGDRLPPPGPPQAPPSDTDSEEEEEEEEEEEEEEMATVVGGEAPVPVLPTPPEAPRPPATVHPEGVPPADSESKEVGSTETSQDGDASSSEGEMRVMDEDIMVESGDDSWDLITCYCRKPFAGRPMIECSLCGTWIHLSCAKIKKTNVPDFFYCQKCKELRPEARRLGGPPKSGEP
Chain of MBT domain-containing protein 1 (Q05BQ5 whole entry, the tested form may be a part, canonical isoform): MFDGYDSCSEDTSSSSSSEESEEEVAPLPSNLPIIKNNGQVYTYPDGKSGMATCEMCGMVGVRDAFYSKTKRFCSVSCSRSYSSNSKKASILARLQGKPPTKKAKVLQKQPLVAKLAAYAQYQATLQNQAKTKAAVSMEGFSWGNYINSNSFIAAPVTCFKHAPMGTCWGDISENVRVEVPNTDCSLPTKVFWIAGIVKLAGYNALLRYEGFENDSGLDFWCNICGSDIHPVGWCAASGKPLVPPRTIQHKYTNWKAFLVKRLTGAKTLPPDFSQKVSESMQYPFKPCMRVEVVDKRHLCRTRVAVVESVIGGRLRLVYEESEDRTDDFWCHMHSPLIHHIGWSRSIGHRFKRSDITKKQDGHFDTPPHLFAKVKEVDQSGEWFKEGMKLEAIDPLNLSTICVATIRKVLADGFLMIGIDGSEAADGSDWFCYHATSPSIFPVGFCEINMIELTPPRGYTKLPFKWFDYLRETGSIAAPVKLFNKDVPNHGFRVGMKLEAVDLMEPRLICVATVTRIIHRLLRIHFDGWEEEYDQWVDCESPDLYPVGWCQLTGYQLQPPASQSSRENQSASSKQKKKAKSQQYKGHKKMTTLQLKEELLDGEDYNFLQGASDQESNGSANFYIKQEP

`CN(CCCNC(=O)c1cccc(Br)c1)C(C)(C)C` [3-Bromo-N-(3-(tert-butyl(methyl)amino)propyl)benzamide (UNC2892, 4)]: the negative logarithm of the IC50 (pIC50) (in [1]; at TP53-binding protein 1 [2]; in test [3]; in test [4]; against PHD finger protein 1; in [5]) was less than 3.30 throughout. Moreover, the pIC50 (in test [6]; against PHD finger protein 23; on PHD finger protein 19) was less than 3.30 throughout.

Regarding `CC(C)(C)OCCCNC(=O)c1cccc(Br)c1` [3-Bromo-N-(3-(tert-butoxy)propyl)benzamide (5)], the pIC50 (in test [1]; at TP53-binding protein 1 [2]; in test [3]; in test [4]; on PHD finger protein 1; in test [5]) was less than 4.00 in each case. The pIC50 (in [6]; on PHD finger protein 23; against PHD finger protein 19) was less than 4.00 throughout.

In turn, `CC(C)(C)NCCCNC(=O)c1cccc(Br)c1` [3-Bromo-N-(3-(tert-butylamino)propyl)benzamide (UNC2170, 1)] gave a pKd on TP53-binding protein 1 [7] of 4.66. The pIC50 in test [1] was less than 3.30; on TP53-binding protein 1 [2] it was 4.54; in test [3] it was less than 3.30; in [4], less than 3.30; at PHD finger protein 1 it was less than 3.30; in test [5] it was less than 3.30. Moreover, the pIC50 (in test [6]; on PHD finger protein 23; at PHD finger protein 19) was less than 3.30 each time.

The values are drawn from BindingDB's records for doi:10.1021/cb500956g (University of North Carolina At Chapel Hill, 2015).
